Bridge positions count the residues as written; N and C are the ends. Peptide text beside a SMILES is read from it. * marks the point of attachment. FITC = O=C1OC2(c3ccc(O)cc3Oc3cc(O)ccc32)c2ccc(NC(=S)*)cc21; GABA = NCCCC(=O)O
Columns and labels:
[1] = system: EGFR+ve cells (H1299, DKMG) versus K562 cells; test: Flow cytometry internalization of peptide-FITC conjugates; format: cell-based; settings: 2.5 μM FITC-labeled peptide
Text: Analysis was done with FACS cell analyzer.

[2] = system: high-EGFR-expressing MDA-435 cells; test: Target specificity by flow cytometry, MDA-435; format: cell-based; settings: FITC-labeled peptides
Procedure: (§1) Cells with 80-90% confluence were incubated with 2.5 μM FITC-conjugated peptides in RPMI-5% FBS for 1 h at 37° C. Cells were scrapped from the culture flask and washed twice with 2 ml FCSB. Cells were analyzed as previously described Internalization of peptide-FITC conjugates.
(§2) Cells were cultured overnight in 6-well plates under 80-90% confluence, the medium was replaced with 1 ml of the fresh medium with 5% FBS that contained 2.5 μM FITC-conjugated peptides. The plates were incubated for 1, 2, or 3 h at 37° C. After incubation, the cells were collected with trypsin, washed twice with FCSB, and resuspended in 200 μl of FCSB. Analysis was done with FACS cell analyzer.
(§3) Targeting specificity of FITC-labeled P4-P6, P8, and P9 peptides was investigated on three cell lines, which were not used in biopanning: kidney HEK-293 and breast MCF-10A normal cells, and breast cancer MDA-435 cells. To verify EGFR WT expression on these cell lines, the inventors stained the cells with APC-labeled monoclonal anti-human EGFR antibody followed by a flow cytometry analysis.
(§4) The interaction of the FITC labeled P4 P6, P8, and P9 with these cell lines was analyzed by flow cytometry.

[3] = system: H1299 cells; test: Confocal microscopy, H1299; format: cell-based; settings: 25 μM
Procedure: (§5) H1299, DKMG and HEK-293 cells were seeded in 12-well glass bottom black plates in concentrations of 5.0×10^4, 1.0×10^5, and 2.5×10^4 cells/well, respectively. The cells were cultured in complete growth medium at 37° C. under 5% CO2 for 24 h. After incubation, the medium was removed, the cells were twice washed with PBS Ca^2+Mg^2+, and new fresh medium (0.5 ml) contained 25 μM of FITC labeled P6 or P9 peptides was added. The stained cells were incubated at 37° C. under 5% CO2 for 0 h and 3 h, washed twice with PBS, and stained with Hoechst 33258 ([…], 0.5 ml, 37° C., 5% CO2) for 10 min. The cells were twice washed with PBS and fixed with 4% paraformaldehyde (PFA). Fluorescence images were then recorded at the magnification of ×200 with a Zeiss LSM700 confocal laser microscope.
(§6) To get additional confirmation data on the specificity of the FITC labeled P6 and P9 peptides towards EGFR H1299 lung cancer and […] DKMG glioblastoma cell lines compared to EGFR−ve HEK-293 normal cells, the inventors employed confocal scanning microscopy. The cells were incubated with 25 μM FITC-labeled P6 and P9, the cell nuclear were stained with […], the cells were fixed with 4% paraformaldehyde, and captured immediately after addition and 3 h later. […] A clear correlation of the green FITC signal with the cell type was established.

[4] = system: DKMG cells; test: Confocal microscopy, DKMG; format: cell-based; settings: 25 μM; for green FITC signal: after 3 hours; for fluorescence intensity: time zero
Procedure: as §5, §6

[5] = system: HEK-293 cells; test: Confocal microscopy, HEK-293; format: cell-based; settings: 25 μM, after 3 hours
Procedure: as §5, §6

[6] = system: H1299, DKMG and K562 cells; test: Flow cytometry binding of peptide-FITC conjugates; format: cell-based; settings: 2.5 μM FITC-labeled peptide
Text: This concentration was chosen based on preliminary dose dependence study.

[7] = system: MCF-10A cells; settings: FITC-labeled peptides, flow cytometry
Procedure: as §1, §2, §3, §4

[8] = system: DKMG cells line expressing both EGFR+ve and EGFRvIII mutation; settings: 2.5 μM FITC-labeled peptide
Procedure: as §2

SMILES	internalization (flow cytometry) [1]	internalization into MDA-435 cells [2]	green FITC signal ([3]; after 3 hours)	fluorescence intensity ([3]; time zero)	green FITC signal [4]	fluorescence intensity [4]	green FITC signal [5]	binding (flow cytometry) [6]	binding to MDA-435 cells [2]	binding to MCF-10A cells [7]	internalization activity to DKMG [8]
CC[C@H](C)[C@@H]1NC(=O)[C@H](Cc2ccc(O)cc2)NC(=O)[C@H](CO)NC(=O)CNC(=O)[C@@H]2CCCN2C(=O)[C@H](C(C)C)NC(=O)[C@H](Cc2cnc[nH]2)NC(=O)[C@@H](NC(=O)CCCNC(=S)Nc2ccc3c(c2)C(=O)OC32c3ccc(O)cc3Oc3cc(O)ccc32)CSSC[C@@H](C(N)=O)NC1=O [FITC-labeled P6] ({FITC-GABA}-CHVPGSYIC-NH2; disulfide 1-9)	internalized only into to EGFR+ve cells	pronounced internalization	strong signal	not detectable	strong signal	not detectable	low-intensive signal				
CC(C)C[C@@H]1NC(=O)[C@H](C)NC(=O)[C@H](CO)NC(=O)[C@@H](NC(=O)CCCNC(=S)Nc2ccc3c(c2)C(=O)OC32c3ccc(O)cc3Oc3cc(O)ccc32)CSSC[C@@H](C(N)=O)NC(=O)[C@H](Cc2cnc[nH]2)NC(=O)[C@H](CO)NC(=O)[C@H](C)NC(=O)[C@H](Cc2c[nH]c3ccccc23)NC1=O [FITC-labeled P8] ({FITC-GABA}-CSALWASHC-NH2; disulfide 1-9)	internalized only into to EGFR+ve cells							bind to H1299 and DKMG selectively but not to K562 cells	noticeable binding	noticeable binding	
CSCC[C@@H]1NC(=O)[C@H](C)NC(=O)[C@H](CC(N)=O)NC(=O)[C@H](C(C)C)NC(=O)[C@@H](NC(=O)CCCNC(=S)Nc2ccc3c(c2)C(=O)OC32c3ccc(O)cc3Oc3cc(O)ccc32)CSSC[C@@H](C(N)=O)NC(=O)[C@H](Cc2ccc(O)cc2)NC(=O)[C@H](CO)NC(=O)[C@H](CCC(N)=O)NC1=O [FITC-labeled P9] ({FITC-GABA}-CVNAMQSYC-NH2; disulfide 1-9)	internalized only into to EGFR+ve cells	pronounced internalization			significantly increased after 3 hours	pronounced emission		bind to H1299 and DKMG selectively but not to K562 cells			higher internalization activity

From patent US20250346634A1, “CYCLIC PEPTIDES FOR TARGETING EPIDERMAL GROWTH FACTOR RECEPTOR AND MUTATIONS THEREOF FOR DRUG DELIVERY” (priority 2022, published 2025)
